Source: patent US7084141B2, “Inhibitors of macrophase migration inhibitory factor and methods for identifying the same” (Avanir Pharmaceuticals, priority 2001, dated 2006)

How the values were obtained:
[1] = biological target: T1, MIF (Homo sapiens, UniProt P14174); test: Immunoprecipitation of MIF from conditioned media of LPS treated THP-1 cells with monoclonal or polyclonal antibody; format: cell-based; details: 10 μM compound; LPS 10 μg/ml; not observed with polyclonal antibody
T1 sequence (P14174 2-115 limits assumed): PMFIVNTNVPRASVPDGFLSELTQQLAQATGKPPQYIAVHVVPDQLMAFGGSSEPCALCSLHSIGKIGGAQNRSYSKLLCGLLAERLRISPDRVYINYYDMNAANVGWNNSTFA
Description: Cell culture experiments were designed to characterize the activity of candidate compounds, MIF expression, trafficking, and export. Cell and conditioned medium fractions are prepared for immunoprecipitation essentially as described previously (Florkiewicz et al., Growth Factors 4:265–275, 1991; Florkiewicz et al., Ann. N.Y. Acad. Sci. 638:109–126) except that 400 μl of lysis buffer (1% NP-40, 0.5% deoxycholate, 20 mM Tris pH 7.5, 5 mM EDTA, 2 mM EGTA, 0.01 mM phenylmethylsufonyl fluoride, 10 ng/ml aprotinin, 10 ng/ml leupeptin, 10 ng/ml peptstatin) is added to the medium fraction after clarification by centrifugation in a microfuge for 15 minutes. Cell or medium fractions are incubated with monoclonal or polyclonal antibodies to MIF and GammaBind™ G Sepharose® (Pharmacia LKB Biotechnology, Uppsala, Sweden) was added for an additional 30 minutes incubation. Immune complexes are sedimented by microfuge centrifugation, washed three times with lysis buffer, and four times with ice cold immunoprecipitation wash buffer (0.15M NaCl, 0.01 M Na-phosphate pH 7.2, 1% deoxycholate, 1% NP-40, 0.1% sodium dodecyl sulfate). Immune complexes are dissociated directly in SDS gel sample buffer 125 mM Tris, pH 6.8, 4% SDS, 10% glycerol, 0.004% bromphenol blue, 2 mM EGTA, and separated by 12% SDS-PAGE. The gel is processed for fluorography, dried, and exposed to X-ray film at −70° C. […]

[2] = system: serum MIF; test: Collagen induced arthritis model, serum MIF (ELISA); format: in vivo, mouse; details: day 74, compared to untreated CIA samples
Description: In another experiment, fifteen DBA/1J mice, age 10–12 weeks were immunized on day 0 at the base of the tail with bovine collagen type II (CII 100 μg), emulsified in Freunds complete adjuvant (FCA; GibcoBRL). On day 21, a second dose of collagen was administered via the same route, emulsified in Freunds incomplete adjuvant. On day 28 the mice were injected subcutaneously with 100 μg of LPS (055:B5). On day 71 the mice were injected i.p. with 40 μg LPS (0111:B4). Groups and treatment protocol were the same as described as above. On day 74 blood samples were collected and cytokines were measured.

## Cn1c(=O)c([N+](=O)[O-])c(N2CCN(C(=O)c3ccco3)CC2)c2ccccc21 [compound 7e]
[1]
  detectable MIF in conditioned media using the monoclonal antibody: significant loss of detectable MIF
[2]
  serum MIF levels: reduced serum MIF levels
